According to ChEMBL document CHEMBL1777676, “3-substitued indoles: one-pot synthesis and evaluation of anticancer and Src kinase inhibitory activities” (Bioorg Med Chem Lett, 2011):
pIC50: −log10 of the molar value.

What was measured:
SK-OV-3 = assay: Anticancer activity against human SKOV3 cells assessed as inhibition of cell proliferation at 50 uM after 72 hrs relative to control; format: functional; details: SK-OV-3, 72 h
[1] = target: Proto-oncogene tyrosine-protein kinase Src (Homo sapiens, UniProt P12931); assay: Inhibition of c-Src using AEEEIYGEFEAKKKK substrate by fluorescence intensity assay
HT-29 = assay: Anticancer activity against human HT-29 cells assessed as inhibition of cell proliferation at 50 uM after 72 hrs relative to control; format: functional; details: HT-29, 72 h

Proto-oncogene tyrosine-protein kinase Src, sequence (P12931 2-536 limits assumed): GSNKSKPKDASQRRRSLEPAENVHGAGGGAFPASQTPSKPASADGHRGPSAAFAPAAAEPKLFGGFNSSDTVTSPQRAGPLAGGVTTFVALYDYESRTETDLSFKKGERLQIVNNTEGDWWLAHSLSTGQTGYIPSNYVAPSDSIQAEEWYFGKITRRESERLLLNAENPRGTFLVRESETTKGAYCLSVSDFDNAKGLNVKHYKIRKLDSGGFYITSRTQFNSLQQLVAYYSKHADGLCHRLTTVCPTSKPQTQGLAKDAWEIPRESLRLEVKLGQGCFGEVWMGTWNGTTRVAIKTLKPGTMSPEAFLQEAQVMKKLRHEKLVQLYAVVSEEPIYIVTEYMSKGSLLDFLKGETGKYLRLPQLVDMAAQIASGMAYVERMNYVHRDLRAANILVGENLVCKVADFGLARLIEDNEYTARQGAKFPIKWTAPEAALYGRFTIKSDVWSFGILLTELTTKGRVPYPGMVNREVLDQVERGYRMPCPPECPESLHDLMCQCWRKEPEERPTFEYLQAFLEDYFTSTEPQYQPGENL

| pIC50 [1] | Structure (SMILES) | inhibition at 50 µM (SK-OV-3) [%] | inhibition at 50 µM (HT-29) [%] |
| --- | --- | --- | --- |
| < 3.82 | CN(c1ccccc1)C(c1ccc(Cl)cc1)c1c[nH]c2ccccc12 (configuration not stated) | 72 | – |
| < 3.82 | Cc1ccc(C(c2c[nH]c3ccccc23)N(C)c2ccccc2)cc1 (configuration not stated) | – | – |
| < 3.82 | COc1ccc(C(c2c[nH]c3ccccc23)N(C)c2ccccc2)cc1 (configuration not stated) | – | – |
| 4.30 | CN(c1ccccc1)C(c1ccccc1)c1c[nH]c2ccccc12 (configuration not stated) | 55 | – |
| < 3.82 | CN(c1ccccc1)C(c1ccc(O)cc1)c1c[nH]c2ccccc12 (configuration not stated) | – | – |
| < 3.82 | CN(c1ccccc1)C(c1ccc(O)c(Br)c1)c1c[nH]c2ccccc12 (configuration not stated) | – | – |
| < 3.82 | COc1cccc(C(c2c[nH]c3ccccc23)N(C)c2ccccc2)c1 (configuration not stated) | – | – |
| < 3.82 | COc1ccc(C(c2c[nH]c3ccccc23)N(C)c2ccccc2)c(OC)c1 (configuration not stated) | – | – |
| < 3.82 | CN(c1ccccc1)C(c1ccccc1)c1cn(C)c2ccccc12 (configuration not stated) | – | – |
| 4.01 | CN(c1ccccc1)C(c1ccc(Cl)cc1)c1cn(C)c2ccccc12 (configuration not stated) | – | – |
| 4.22 | Cc1ccc(C(c2cn(C)c3ccccc23)N(C)c2ccccc2)cc1 (configuration not stated) | – | – |
| 4.23 | CN(c1ccccc1)C(c1cccc([N+](=O)[O-])c1)c1c[nH]c2ccccc12 (configuration not stated) | – | – |
| 4.15 | CN(c1ccccc1)C(c1ccccc1)c1c[nH]c2ccc(Br)cc12 (configuration not stated) | – | – |
| 4.00 | COc1ccc(C(c2c[nH]c3ccc(OC)cc23)N(C)c2ccccc2)cc1 (configuration not stated) | – | – |
| < 3.82 | COc1ccc2[nH]cc(C(c3ccc(C)cc3)N(C)c3ccccc3)c2c1 (configuration not stated) | 70 | 70 |
| < 3.82 | Cc1ccc(C(c2c[nH]c3ccc(Br)cc23)N(C)c2ccccc2)cc1 (configuration not stated) | 70 | 70 |
| 3.97 | COc1ccc(C(c2c[nH]c3ccc(Br)cc23)N(C)c2ccccc2)cc1 (configuration not stated) | 70 | 70 |
| 4.06 | COc1ccc2[nH]cc(C(c3ccc(Cl)cc3)N(C)c3ccccc3)c2c1 (configuration not stated) | 77 | – |
